Values after ≈ are worked out from the molar mass of the structure shown. Values belong to the compound of their own block, whether it stands above or below them.
How the values were obtained:
[1] = target: human DNA ligase I (Homo sapiens, UniProt P18858); test: nick-sealing DNA ligase assay (gel electrophoresis), DNA ligase I; type: biochemical; conditions: ATP 10 μM, DNA substrate 50 nM, human DNA ligase I 0.5 nM; for IC50: read-out: IC50 against human DNA ligase I (converted)
Protocol: In this study, a standard nick-sealing assay was used to identify potential human DNA ligase inhibitors from representative flavonoids. […] Selected flavonoids with the resorcinol moiety in their A rings were tested as potential DNA ligase inhibitors. Epigallocatechin gallate (EGCG) is also a flavonoid found in plants, herbs, fruits, and green tea. Rutin is a flavonoid glycoside combining the flavonol quercetin and the disaccharide rutinose found in a wide variety of plants, including citrus. Quercetin is a plant flavonoid found in many fruits, vegetables, and other foods.
Figure 3 The effects of selected flavonoids on human DNA ligase I activity. DNA ligase assays were performed in reaction mixtures in the presence of ATP (10 μM), DNA substrate (50 nM), and human DNA ligase I (0.5 nM) as previously described.
Figure 4 The effects of cyaniding and rosinidin on human DNA ligase I activity. DNA ligase assays were performed in reaction mixtures in the presence of ATP (10 μM), DNA substrate (50 nM), and human DNA ligase I (0.5 nM) as previously described.
(§1) A 39 base pair nicked duplex was constructed and used as a substrate for the ligase reaction. In brief, the first 19 base pair oligonucleotide (5′-CGTAAAACGACGGCCAGTG-3′) and the second 20 base pair oligonucleotide (5′-[…]-3′) labeled with radioactive ^32P were annealed to the complementary 39 base pair oligonucleotide (5′-[…]-3′) to construct a 39 base pair nicked duplex as previously described. The resulting nicked duplex DNA was purified via 8% nondenaturing polyacrylamide gel electrophoresis.
(§2) DNA ligase I activity was routinely assayed according to a modified procedure described previously by determining the ligation of two oligonucleotides, which are hybridized to a complementary 39-mer oligonucleotide. Ligation of 5′-[^32P] end-labeled 20-mer oligonucleotide to the unlabeled 19-mer oligonucleotide was analyzed via polyacrylamide gel electrophoresis in the presence of 8 M urea. The assays were performed at least twice, and representative data are shown in this paper.

[2] = target: T1, human DNA ligase III (Homo sapiens, UniProt P49916); test: nick-sealing DNA ligase assay, DNA ligase III; type: biochemical; conditions: ATP 10 μM, DNA substrate 50 nM; read-out: IC50 against human DNA ligase III (converted)
T1 sequence (P49916 43-1009): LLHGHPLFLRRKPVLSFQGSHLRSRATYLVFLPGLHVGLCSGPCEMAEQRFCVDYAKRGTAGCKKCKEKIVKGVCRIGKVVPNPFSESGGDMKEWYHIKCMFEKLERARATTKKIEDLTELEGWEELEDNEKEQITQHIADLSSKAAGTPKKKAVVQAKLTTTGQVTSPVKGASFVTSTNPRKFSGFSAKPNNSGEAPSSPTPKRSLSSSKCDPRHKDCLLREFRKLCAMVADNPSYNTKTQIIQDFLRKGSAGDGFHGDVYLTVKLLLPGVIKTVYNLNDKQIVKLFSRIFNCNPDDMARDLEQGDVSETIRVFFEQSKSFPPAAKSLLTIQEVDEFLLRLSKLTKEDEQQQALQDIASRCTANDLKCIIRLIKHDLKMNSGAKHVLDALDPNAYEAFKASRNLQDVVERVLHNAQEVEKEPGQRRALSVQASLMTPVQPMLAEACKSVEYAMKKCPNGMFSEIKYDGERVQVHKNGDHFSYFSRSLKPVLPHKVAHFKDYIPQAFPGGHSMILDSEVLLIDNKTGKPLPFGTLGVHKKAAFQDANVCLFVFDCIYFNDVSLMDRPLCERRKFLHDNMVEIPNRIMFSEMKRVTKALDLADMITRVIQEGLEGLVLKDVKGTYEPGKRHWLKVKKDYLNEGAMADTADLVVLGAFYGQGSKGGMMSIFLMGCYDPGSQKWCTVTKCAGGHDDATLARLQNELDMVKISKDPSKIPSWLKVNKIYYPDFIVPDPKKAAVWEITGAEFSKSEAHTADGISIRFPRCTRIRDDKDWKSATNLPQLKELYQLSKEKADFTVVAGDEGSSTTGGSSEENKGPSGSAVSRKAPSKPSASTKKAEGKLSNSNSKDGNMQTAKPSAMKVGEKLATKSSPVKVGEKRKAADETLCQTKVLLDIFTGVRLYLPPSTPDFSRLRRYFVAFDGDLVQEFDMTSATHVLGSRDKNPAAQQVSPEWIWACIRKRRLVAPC
Protocol: (§3) To validate the results from the molecular modeling studies, we also tested the effects of rutin on human DNA ligase III and IV activity.
(§4) Figure 6 The effects of rutin on human DNA ligases III and IV activities. DNA ligase assays were performed in reaction mixtures in the presence of ATP (10 μM), DNA substrate (50 nM), and human DNA ligase I (0.5 nM) as previously described.
as §1, §2

[3] = target: T2, human DNA ligase IV (Homo sapiens, UniProt P49917); test: nick-sealing DNA ligase assay, DNA ligase IV; type: biochemical; conditions: ATP 10 μM, DNA substrate 50 nM; read-out: IC50 against human DNA ligase IV (converted)
T2 sequence (P49917 1-911): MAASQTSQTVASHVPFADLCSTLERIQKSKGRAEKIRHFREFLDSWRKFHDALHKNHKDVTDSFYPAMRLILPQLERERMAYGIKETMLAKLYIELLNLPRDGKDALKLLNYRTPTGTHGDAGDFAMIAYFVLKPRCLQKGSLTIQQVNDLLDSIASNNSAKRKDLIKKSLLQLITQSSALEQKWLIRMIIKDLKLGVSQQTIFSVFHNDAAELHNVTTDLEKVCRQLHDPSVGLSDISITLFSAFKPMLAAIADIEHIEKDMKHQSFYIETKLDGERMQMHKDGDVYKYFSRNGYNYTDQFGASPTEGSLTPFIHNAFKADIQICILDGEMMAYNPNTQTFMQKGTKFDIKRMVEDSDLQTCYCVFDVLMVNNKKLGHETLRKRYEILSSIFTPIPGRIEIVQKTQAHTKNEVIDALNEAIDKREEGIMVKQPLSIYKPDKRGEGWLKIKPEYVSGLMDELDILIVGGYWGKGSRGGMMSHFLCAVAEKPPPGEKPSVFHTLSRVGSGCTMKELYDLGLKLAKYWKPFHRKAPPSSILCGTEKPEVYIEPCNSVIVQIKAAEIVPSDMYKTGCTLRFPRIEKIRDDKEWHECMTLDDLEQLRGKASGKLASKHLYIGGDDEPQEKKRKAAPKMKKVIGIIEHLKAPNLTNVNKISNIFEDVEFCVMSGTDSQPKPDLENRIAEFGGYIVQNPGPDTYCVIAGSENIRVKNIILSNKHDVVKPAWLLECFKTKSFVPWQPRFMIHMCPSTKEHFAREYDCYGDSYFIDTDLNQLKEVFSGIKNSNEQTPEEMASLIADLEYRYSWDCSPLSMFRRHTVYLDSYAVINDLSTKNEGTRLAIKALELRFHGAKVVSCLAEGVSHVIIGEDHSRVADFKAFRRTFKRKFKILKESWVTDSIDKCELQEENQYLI
Protocol: as §3, §4, §1, §2

[4] = tested on: Caco-2 cells; test: Caco-2 cell growth and morphology (phase contrast microscopy); type: cell-based, human
From the text: (§5) Some flavonoids are known to be cytotoxic to different types of human cancer cell lines. […] Phase contrast views reveal that rutin-treated cells are relatively thin and shrunken, consistent with the reduced cellular densities commonly observed in cultures exposed to cytotoxic agents (Figure 7A). […] The γH2AX is a sensitive and selective marker for DSBs, as phosphorylation of H2AX (γH2AX) is increased at such breakage sites. […] Phase contrast micrographs of Caco-2 cells treated with various concentrations of rutin for 48 h. Photographs taken at 10× magnification: (A) increased expressions of γH2AX protein in Caco-2 cells incubated with rutin for 48 h, compared with corresponding solvent control group, as measured via Western blot (B). The human intestinal Caco-2 cells were grown at 37 °C and 5% CO2 in a humidified atmosphere, and treated and untreated control cells were examined using an inverted phase-contrast microscope (Fisher Scientific Inverted Phase Contrast Microscope EQ-006, Pittsburgh, PA, USA) to assess cell shape and morphology.

[5] = tested on: γH2AX protein; test: γH2AX protein level in Caco-2 cells (Western blot); type: cell-based, human; conditions: 48 h, versus solvent control
From the text: as §5, with “(B).” for “(B). The human intestinal Caco-2 cells were grown at 37 °C and 5% CO2 in a humidified atmosphere, and treated and untreated control cells were examined using an inverted phase-contrast microscope (Fisher Scientific Inverted Phase Contrast Microscope EQ-006, Pittsburgh, PA, USA) to assess cell shape and morphology.”

Chain of human DNA ligase I (P18858 whole entry): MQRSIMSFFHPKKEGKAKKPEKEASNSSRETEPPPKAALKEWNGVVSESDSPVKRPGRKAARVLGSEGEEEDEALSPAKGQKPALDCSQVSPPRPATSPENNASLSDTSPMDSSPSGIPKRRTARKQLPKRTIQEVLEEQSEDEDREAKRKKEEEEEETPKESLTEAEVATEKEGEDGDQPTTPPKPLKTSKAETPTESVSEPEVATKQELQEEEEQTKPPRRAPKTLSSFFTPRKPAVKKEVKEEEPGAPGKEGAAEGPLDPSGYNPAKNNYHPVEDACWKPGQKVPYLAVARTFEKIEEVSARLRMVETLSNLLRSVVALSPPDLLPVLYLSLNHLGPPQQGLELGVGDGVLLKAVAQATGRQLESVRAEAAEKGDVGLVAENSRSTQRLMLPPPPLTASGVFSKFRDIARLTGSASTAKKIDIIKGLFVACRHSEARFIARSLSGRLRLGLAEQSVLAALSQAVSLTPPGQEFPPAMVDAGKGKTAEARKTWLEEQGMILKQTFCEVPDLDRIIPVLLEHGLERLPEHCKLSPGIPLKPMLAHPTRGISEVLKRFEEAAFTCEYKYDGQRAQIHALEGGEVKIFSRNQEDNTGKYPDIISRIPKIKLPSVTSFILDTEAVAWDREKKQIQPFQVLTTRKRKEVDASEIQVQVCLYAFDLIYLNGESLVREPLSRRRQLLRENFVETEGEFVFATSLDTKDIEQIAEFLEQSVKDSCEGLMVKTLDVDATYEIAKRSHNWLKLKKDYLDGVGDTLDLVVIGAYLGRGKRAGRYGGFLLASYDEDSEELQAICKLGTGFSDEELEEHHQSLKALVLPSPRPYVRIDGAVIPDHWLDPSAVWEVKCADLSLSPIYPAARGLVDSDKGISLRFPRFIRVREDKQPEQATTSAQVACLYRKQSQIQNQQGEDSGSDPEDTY

SMILES: C[C@@H]1O[C@@H](OC[C@H]2O[C@@H](Oc3c(-c4ccc(O)c(O)c4)oc4cc(O)cc(O)c4c3=O)[C@H](O)[C@@H](O)[C@@H]2O)[C@H](O)[C@H](O)[C@H]1O [rutin]
IC50 [1]: 4910 nM | IC50 [2]: 819 nM | IC50 [3]: 1640 nM | effect on cell growth ([4]; Caco-2 cells, 48 h, concentrations lower than IC50): inhibitory effect on cell growth | IC50 ([4]; Homo sapiens, Caco-2): 25 µg/mL (≈ 40.9 µM) | levels of γH2AX protein [5]: increases levels of γH2AX protein in a dose-dependent manner

SMILES: Oc1cc(O)c2cc(O)c(-c3ccc(O)c(O)c3)[o+]c2c1 [cyanidin]
IC50 [1]: ~3480 nM

SMILES: Oc1cc(O)c2c(c1)O[C@H](c1cc(O)c(O)c(O)c1)[C@H](O)C2 [epigallocatechin]
IC50 [1]: 1630 nM

Now from value to compound:

activity against human DNA ligase I [1]: little activity
SMILES: COc1cc(O)c2cc(O)c(-c3ccc(O)c(OC)c3)[o+]c2c1 [rosinidin]

IC50 [1]: 1650 nM
SMILES: O=c1c(O)c(-c2ccc(O)c(O)c2)oc2cc(O)cc(O)c12 [quercetin]

From article PMC11855144, “Role of Human DNA Ligases in Mediating Pharmacological Activities of Flavonoids” (International Journal of Molecular Sciences, 2025)
